This note sets out measurements from patent US20220073532A1, “INHIBITORS OF CGAS ACTIVITY AS THERAPEUTIC AGENTS” (BELLBROOK LABS, LLC, priority 2019, published 2022).

Entries after “also recorded” stand apart in the source; their conditions may differ. Like-named read-outs stand apart in the source and are kept apart here.

Assay [1] relates to interferon-sensitive gene (ISG) expression in THP1-dual cells. In words: ISG mRNA expression by RT-PCR in THP1-dual cells. Format: cell-based, human. To be noted: 24 hours, normalized to β-actin. As to the method: FIG. 6A illustrates activity of IFNβ expression of the compounds of disclosure. FIG. 6B illustrates inhibition of reporter genes from cGAS/STING-driven promoters of compound 28 in THP1-dual cells. FIG. 6C illustrates the ISG mRNA expression of compound 28 in THP1-dual cells. Compound 28 in concentration of 200 μM was evaluated after 24 hours. The results were normalized to β-actin.

The subject of assay [2] is IRF3-driven Luc expression in THP-1 Dual cells. As to the kind of experiment: THP-1 Dual IRF3-Luc reporter assay. It is filed as cell-based, human. To be noted: Homo sapiens; THP1-dual cells; read-out: Cellular IRF3-Luc IC50. As to the method: (§1) IFN induction in human monocyte cell lines: The human monocyte cell line THP-1 gives a robust cGAS/STING-dependent type I IFN response and has been used extensively for studies on the pathway. Typically, cells are stimulated by transfection with dsDNA and gene expression is assessed using an ELISA for IFNβ, a reporter gene assay, and/or cGAS/STING pathway markers such as STING phosphorylation. These assays were validated using the TBK1 inhibitor, BX-795, which acts downstream of cGAS/STING, as a probe; THP-1 Dual cells (Invivogen, San Diego) are used as the reporter cell line for routine compound testing (FIG. 5A). These assays were optimized, including equalizing responses with transfected DNA and cGAMP and comparing responses between undifferentiated cells and cells that have been differentiated to macrophages (which show little difference). […] Stimulation of THP-1 Dual cells with damage-associated molecular pattern molecules (DAMPs) that act through pattern recognition receptors other than cGAS provides another way to confirm the specificity of putative cGAS inhibitors.
In general terms: In a reporter assay the amount or activity of a reporter protein is the signal.

The target of assay [3] is cGAS (Homo sapiens, UniProt Q8N884). As to the kind of experiment: cGAS enzymatic assay (FP/TR-FRET detection of cGAMP). Also noted: The cGAS assay was used to screen 100,000 compounds with full-length human cGAS; 6xHis; made in house. Format: biochemical. In outline:
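Homogeneous enzymatic assay with FP and TR-FRET read-outs, full-length enzyme at 30 nM. IC50 from dose-response under basal conditions (5 mM MgCl2, 100 μM ATP/GTP), also with 0.2 mM Mn added; values reported as letter bins from A (<100 nM) to E (>10 μM).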

The subject of assay [4] is NFκB-driven SEAP expression in THP-1 Dual cells. As to the kind of experiment: THP-1 Dual NFκB-SEAP reporter assay. It is filed as cell-based, human. The settings on record: Homo sapiens; THP1-dual cells; read-out: Cellular NFκB-SEAP IC50. As to the method:
as §1

Assay [5] relates to IFNβ expression in THP-1 cells. In words: IFNβ ELISA in THP-1 cells. Format: cell-based, human. As for the experimental part:
as §1
(In general: ELISA stands for enzyme-linked immunosorbent assay.)

Chain of cGAS (Q8N884 whole entry): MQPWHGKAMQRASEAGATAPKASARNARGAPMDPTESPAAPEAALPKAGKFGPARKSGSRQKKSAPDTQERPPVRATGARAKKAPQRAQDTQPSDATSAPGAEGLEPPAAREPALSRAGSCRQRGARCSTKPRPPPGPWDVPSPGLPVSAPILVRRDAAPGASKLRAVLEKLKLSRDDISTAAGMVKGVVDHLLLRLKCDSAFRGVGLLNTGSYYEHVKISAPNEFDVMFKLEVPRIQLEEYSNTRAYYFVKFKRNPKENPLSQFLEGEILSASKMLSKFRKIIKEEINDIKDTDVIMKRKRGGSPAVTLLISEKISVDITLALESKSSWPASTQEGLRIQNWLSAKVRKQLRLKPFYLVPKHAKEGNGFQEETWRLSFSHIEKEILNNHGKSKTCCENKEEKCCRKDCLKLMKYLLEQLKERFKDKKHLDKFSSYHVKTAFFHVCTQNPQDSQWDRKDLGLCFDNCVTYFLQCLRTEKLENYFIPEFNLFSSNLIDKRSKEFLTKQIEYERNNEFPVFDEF

With `Cc1nc(N2C[C@@H](CC(=O)Nc3ccncc3)C[C@H]2C(=O)O)c2oc3ccccc3c2n1` [Compound 28, (2S,4R)-1-(2-methylbenzofuro[3,2-d]pyrimidin-4-yl)-4-(2-oxo-2-(pyridin-4-ylamino)ethyl)pyrrolidine-2-carboxylic acid], in assay [1], the “ISG expression (fold decrease @ 200 μM)” value was 2-3×. For the same compound, the IC50 in assay [2] is 20 µM; in assay [3] (100 μM ATP/GTP, read-out: Enzymatic FP Std (100 μM ATP/GTP) IC50) it was 0.356 µM; in assay [3] (1 mM ATP/GTP, read-out: Enzymatic FP Physiological (1 mM ATP/GTP) IC50), 3.25 µM; in assay [3] (cGAS (30 nM), read-out: Inhibition cGAS) it was 0.1 to 0.5 µM; in assay [4], 9 µM; in assay [5] (Homo sapiens, read-out: Cellular IFNβ ELISA IC50), 13 µM. For the same compound, the “inhibition of IFNβ expression” value in assay [5] was “reproducible inhibition; also recorded: inhibit IFNβ expression”. For the same compound, the “specificity: DNA- versus cGAMP-stimulated cells” value in assay [5] is “specific for DNA-stimulated cells; also recorded: more potent inhibition of cells stimulated with DNA than those stimulated with cGAMP”.
